In data set [1] the test system is patients with chronic stable angina pectoris. Kind of data set: Example 4: exercise treadmill test (ETT) at peak and trough, IR regimens. The following applies: Peak, all patients, 267 mg tid IR ranolazine .2HCl. Type of data set: in vivo, human. As for the experimental part: In this Example, the safety and anti-ischemic effects of high plasma ranolazine levels in a large group of angina patients was evaluated and the duration of any effects during steady-state dosing with bid and tid regimens was assessed. In this Example, patients with chronic stable angina pectoris who were responsive to conventional antianginal drugs were treated with 3 ranolazine .2HCl dosing regimens: 267 mg tid, 400 mg bid and 400 mg tid IR Formulations of Example 1. Exercise testing parameters and ranolazine free base concentrations were determined at peak and trough plasma levels.
The study involved double-blind, placebo-controlled randomized treatment phase with 4 treatments (placebo, ranolazine .2HCl 400 mg bid, ranolazine .2HCl 267 mg tid, and ranolazine .2HCl 400 mg tid), 4 treatment sequences and 5 double-blind treatment periods in an extended period Latin square design on pre-qualified patients who were responsive to known antianginal therapy and had stable exercise times.
Human patients with chronic stable angina pectoris, of at least 3 months' duration, that had responded to conventional antianginal therapy were considered candidates. […]

For data set [2], the system named is healthy male volunteers. As to the kind of experiment: Example 8: safety and tolerability of SR 1500 and 2000 mg bid. To be noted: for subjects too symptomatic on standing to complete BP measurements: usually 2-6 hours post-dose; for reduction in orthostatic systolic BP: statistically significant. It counts as in vivo, human. On the procedure: The study was performed with ascending doses of sustained release ranolazine dosage forms. Before and at intervals during and after the dosing period, blood samples were drawn for ranolazine assay and blood pressure, heart rate, ECG and symptoms were monitored throughout. Data summaries were reviewed after each phase before proceeding to the next phase of the study.
Eight subjects, all healthy male volunteers aged between 18 and 40 entered and all completed the study and were available for pharmacokinetic and safety analysis. The subjects were each given doses of the various types of ranolazine free base in the form of sustained release tablets including 500 mg and 750 mg tablets or with matching placebo as necessary (2×750 mg size plus 1×500 mg size) to make unit oral doses of 1500 and 2000 mg.
In each phase: one dose bid for four days with a single dose on Day 5. On day 5 each volunteer underwent a full pharmacokinetic profile including supine and erect blood pressure (BP) and heart rate, ECG data, adverse events, clinical chemistry and hematology results, urinalysis results.
These tests were made using two-sided t-tests with estimates of variability from the ANOVA models. Steady state was also assessed by comparing means for C48h, C72h and C96h using a mixed effects ANOVA model and untransformed and log, transformed data. For hemodynamic parameters, Day 1 pre-dose treatment means and Day 5 data were compared across treatments via two-sided t-tests using estimates of variability from mixed effects ANOVA models. Ninety and 95% confidence intervals were calculated for the treatment comparisons. No adjustments were made for multiple comparisons.

Consider `COc1ccccc1OCC(O)CN1CCN(CC(=O)Nc2c(C)cccc2C)CC1` (racemic) [ranolazine, (±)-N-(2,6-dimethylphenyl)-4-[2-hydroxy-3-(2-methoxyphenoxy)-propyl]-1-piperazineacetamide], for which the “Mean time to onset angina” value in data set [1] is 9.40 min. Further, the “subjects too symptomatic on standing to complete BP measurements” value in data set [2] (1500 mg SR bid) is 3 of 8; in data set [2] (2000 mg SR bid), 2 of 8. The adverse events result in data set [2] (SR 1500 and 2000 mg bid versus placebo) is “headache, dizziness and blocked nose seemed more common on ranolazine”. Besides, the “reduction in orthostatic systolic BP” value in data set [2] (day 5, 1500 mg SR bid, 4 hours post-dose) is −9.8 mm Hg; in data set [2] (day 5, 2000 mg SR bid, 6 hours post-dose), −8.4 mmHg.
